Experimental data published in patent US20220168201A1, “USE OF DIANHYDROHEXITOL FOR PRESERVING COSMETIC PREPARATIONS” (ROQUETTE FRERES, priority 2019, published 2022).

Key:
Corynebacterium xerosis = assay: In-vitro effect on microbial strains: population count over 28 days, Corynebacterium xerosis; assay type: cell-based; conditions: for Number of colony-forming strains after: 24 h / Number of colony-forming strains after: 7 days / Number of colony-forming strains after: 14 days / Number of colony-forming strains after: 21 days / Number of colony-forming strains after: 28 days: inoculum 3.2 × 10^5, 22° C.
Description: (§1) The samples are prepared under sterile conditions and deposited in microplates (2-ml wells) with the concentrations hereunder. Two analysis controls were carried out: • a positive control corresponding to 0.5% Phenonip®; • a negative control consisting of 0.85% physiological saline solution. Samples and controls are contaminated with three bacterial strains, namely Staphylococcus epidermidis, Corynebacterium xerosis, and Propionobacterium acnes, at a rate of approximately […] to 4.15×10^5 colony-forming units per milliliter, denoted cfu/ml; and a fungal strain, namely Malassezia furfur, at a rate of approximately 1.50×104 to 3.80×10^4 cfu/ml. After contamination, the samples are carefully mixed by suction and discharge cycles in order to ensure a uniform distribution of the microorganism. The whole is incubated at 22° C. during 28 days. The microbial population is sampled and counted at 24 hours and 7, 14, 21 and 28 days for each microbial strain. The contaminated samples are collected and then deposited in serial dilutions in microtiter plates, in the presence of culture medium, which is a saline solution with 0.85% sodium chloride, and a dehydrogenase activity indicator reagent, which is 2,3,5-triphenyltetrazolium chloride (denoted TTC). The results are presented in the following pages with the variation of the microbial population over the 28 days of study, for the tested microbial strain. The measurements of microbial populations in the samples collected at each time, are carried out according to the following microtiter method, for one sample collection. In the 96 wells with a volume of 250 μL of a microtiter plate, 20 μL of the collected sample are diluted by a factor of 10 by dispersion in 180 μL of Letheen broth (Difco, ref. 268110) containing 1.5% of Tween 80 (Sigma, ref. […]) and TTC (Sigma, ref. […]). The microplate is incubated for 48 hours at 32.5° C., and the growth of the microorganisms is monitored by the color change, from colorless to red/pink. The highest reciprocal dilution indicating a growth makes it possible to determine the log number of each microorganism at each time. The measurements of microbial populations taken at each collection time are expressed as colony forming units/ml.

Aspergillus brasiliensis = conditions: U.S. Pat. No. 9,295,626, col. 27, Table 2; cited from earlier work
Candida albicans = conditions: U.S. Pat. No. 9,295,626, col. 27, Table 2; cited from earlier work
Propionobacterium acnes = assay: In-vitro effect on microbial strains: population count over 28 days, Propionobacterium acnes; assay type: cell-based; conditions: for Number of colony-forming strains after: 24 h / Number of colony-forming strains after: 7 days / Number of colony-forming strains after: 14 days / Number of colony-forming strains after: 21 days / Number of colony-forming strains after: 28 days: inoculum 3.98 × 10^5, 22° C.
Description: as §1

Malassezia furfur = assay: In-vitro effect on microbial strains: population count over 28 days, Malassezia furfur; assay type: cell-based; conditions: for Number of colony-forming strains after: 24 h / Number of colony-forming strains after: 7 days / Number of colony-forming strains after: 14 days / Number of colony-forming strains after: 21 days / Number of colony-forming strains after: 28 days: inoculum 1.5 × 10^4, 22° C.
Description: as §1

[1] = tested on: Staphylococcus epidermidis; assay: In-vitro effect on microbial strains: population count over 28 days, Staphylococcus epidermidis; assay type: cell-based; conditions: for Number of colony-forming strains after: 24 h / Number of colony-forming strains after: 7 days / Number of colony-forming strains after: 14 days / Number of colony-forming strains after: 21 days / Number of colony-forming strains after: 28 days: inoculum 1.43 × 10^5, 22° C.
Description: as §1

Staphylococcus aureus = conditions: U.S. Pat. No. 9,295,626, col. 27, Table 2; cited from earlier work
[2] = after 24 hours, the three doses tested (1%, 5%, 9%)
[3] = after 24 hours, doses 1%, 5%, 9%

SMILES: O[C@@H]1CO[C@H]2[C@@H]1OC[C@@H]2O [isosorbide, 1,4-3,6-dianhydrosorbitol]
- reduction of the number of colony-forming strains (Corynebacterium xerosis; [2]): at least 3 log 10
- colony-forming strains observed (Corynebacterium xerosis; after 7 days): no more colony-forming strains
- Number of colony-forming strains after: 24 h (Corynebacterium xerosis; isosorbide dose 1%): 4 × 10^2 colony forming units/ml
- Number of colony-forming strains after: 7 days (Corynebacterium xerosis; isosorbide dose 1%): 0 colony forming units/ml
- Number of colony-forming strains after: 14 days (Corynebacterium xerosis; isosorbide dose 1%): 0 colony forming units/ml
- Number of colony-forming strains after: 21 days (Corynebacterium xerosis; isosorbide dose 1%): 0 colony forming units/ml
- Number of colony-forming strains after: 28 days (Corynebacterium xerosis; isosorbide dose 1%): 0 colony forming units/ml
- Number of colony-forming strains after: 24 h (Corynebacterium xerosis; isosorbide dose 5%): 1 × 10^2 colony forming units/ml
- Number of colony-forming strains after: 7 days (Corynebacterium xerosis; isosorbide dose 5%): 0 colony forming units/ml
- Number of colony-forming strains after: 14 days (Corynebacterium xerosis; isosorbide dose 5%): 0 colony forming units/ml
- Number of colony-forming strains after: 21 days (Corynebacterium xerosis; isosorbide dose 5%): 0 colony forming units/ml
- Number of colony-forming strains after: 28 days (Corynebacterium xerosis; isosorbide dose 5%): 0 colony forming units/ml
- Number of colony-forming strains after: 7 days (Corynebacterium xerosis; isosorbide dose 9%): 0 colony forming units/ml
- Number of colony-forming strains after: 14 days (Corynebacterium xerosis; isosorbide dose 9%): 0 colony forming units/ml
- Number of colony-forming strains after: 21 days (Corynebacterium xerosis; isosorbide dose 9%): 0 colony forming units/ml
- Number of colony-forming strains after: 28 days (Corynebacterium xerosis; isosorbide dose 9%): 0 colony forming units/ml
- effect on the strain in words (Corynebacterium xerosis; summary of Table 3): moderate bactericide
- minimum inhibitory concentration (Aspergillus brasiliensis): 10%
- minimum inhibitory concentration (Candida albicans): 10%
- colony-forming strains observed (Propionobacterium acnes; [3]): no colony-forming strain is observed
- Number of colony-forming strains after: 24 h (Propionobacterium acnes; isosorbide dose 1%): 0 colony forming units/ml
- Number of colony-forming strains after: 7 days (Propionobacterium acnes; isosorbide dose 1%): 0 colony forming units/ml
- Number of colony-forming strains after: 14 days (Propionobacterium acnes; isosorbide dose 1%): 0 colony forming units/ml
- Number of colony-forming strains after: 21 days (Propionobacterium acnes; isosorbide dose 1%): 0 colony forming units/ml
- Number of colony-forming strains after: 28 days (Propionobacterium acnes; isosorbide dose 1%): 0 colony forming units/ml
- Number of colony-forming strains after: 24 h (Propionobacterium acnes; isosorbide dose 5%): 0 colony forming units/ml
- Number of colony-forming strains after: 7 days (Propionobacterium acnes; isosorbide dose 5%): 0 colony forming units/ml
- Number of colony-forming strains after: 14 days (Propionobacterium acnes; isosorbide dose 5%): 0 colony forming units/ml
- Number of colony-forming strains after: 21 days (Propionobacterium acnes; isosorbide dose 5%): 0 colony forming units/ml
- Number of colony-forming strains after: 28 days (Propionobacterium acnes; isosorbide dose 5%): 0 colony forming units/ml
- Number of colony-forming strains after: 24 h (Propionobacterium acnes; isosorbide dose 9%): 0 colony forming units/ml
- Number of colony-forming strains after: 7 days (Propionobacterium acnes; isosorbide dose 9%): 0 colony forming units/ml
- Number of colony-forming strains after: 14 days (Propionobacterium acnes; isosorbide dose 9%): 0 colony forming units/ml
- Number of colony-forming strains after: 21 days (Propionobacterium acnes; isosorbide dose 9%): 0 colony forming units/ml
- Number of colony-forming strains after: 28 days (Propionobacterium acnes; isosorbide dose 9%): 0 colony forming units/ml
- effect on the strain in words (Propionobacterium acnes; summary of Table 1): bactericide
- colony-forming strains observed (Malassezia furfur; [3]): no colony-forming strain is observed
- Number of colony-forming strains after: 24 h (Malassezia furfur; isosorbide dose 1%): 0 colony forming units/ml
- Number of colony-forming strains after: 7 days (Malassezia furfur; isosorbide dose 1%): 0 colony forming units/ml
- Number of colony-forming strains after: 14 days (Malassezia furfur; isosorbide dose 1%): 0 colony forming units/ml
- Number of colony-forming strains after: 21 days (Malassezia furfur; isosorbide dose 1%): 0 colony forming units/ml
- Number of colony-forming strains after: 28 days (Malassezia furfur; isosorbide dose 1%): 0 colony forming units/ml
- Number of colony-forming strains after: 24 h (Malassezia furfur; isosorbide dose 5%): 0 colony forming units/ml
- Number of colony-forming strains after: 7 days (Malassezia furfur; isosorbide dose 5%): 0 colony forming units/ml
- Number of colony-forming strains after: 14 days (Malassezia furfur; isosorbide dose 5%): 0 colony forming units/ml
- Number of colony-forming strains after: 21 days (Malassezia furfur; isosorbide dose 5%): 0 colony forming units/ml
- Number of colony-forming strains after: 28 days (Malassezia furfur; isosorbide dose 5%): 0 colony forming units/ml
- Number of colony-forming strains after: 24 h (Malassezia furfur; isosorbide dose 9%): 0 colony forming units/ml
- Number of colony-forming strains after: 7 days (Malassezia furfur; isosorbide dose 9%): 0 colony forming units/ml
- Number of colony-forming strains after: 14 days (Malassezia furfur; isosorbide dose 9%): 0 colony forming units/ml
- Number of colony-forming strains after: 21 days (Malassezia furfur; isosorbide dose 9%): 0 colony forming units/ml
- Number of colony-forming strains after: 28 days (Malassezia furfur; isosorbide dose 9%): 0 colony forming units/ml
- effect on the strain in words (Malassezia furfur; summary of Table 2): bactericide
- reduction of the number of colony-forming strains [1, 2]: at least 2 log 10
- colony-forming strains observed ([1]; after 7 days): no more colony-forming strains
- Number of colony-forming strains after: 24 h ([1]; isosorbide dose 1%): 4 × 10^3 colony forming units/ml
- Number of colony-forming strains after: 7 days ([1]; isosorbide dose 1%): 0 colony forming units/ml
- Number of colony-forming strains after: 14 days ([1]; isosorbide dose 1%): 0 colony forming units/ml
- Number of colony-forming strains after: 21 days ([1]; isosorbide dose 1%): 0 colony forming units/ml
- Number of colony-forming strains after: 28 days ([1]; isosorbide dose 1%): 0 colony forming units/ml
- Number of colony-forming strains after: 24 h ([1]; isosorbide dose 5%): 1 × 10^3 colony forming units/ml
- Number of colony-forming strains after: 7 days ([1]; isosorbide dose 5%): 0 colony forming units/ml
- Number of colony-forming strains after: 14 days ([1]; isosorbide dose 5%): 0 colony forming units/ml
- Number of colony-forming strains after: 21 days ([1]; isosorbide dose 5%): 0 colony forming units/ml
- Number of colony-forming strains after: 28 days ([1]; isosorbide dose 5%): 0 colony forming units/ml
- Number of colony-forming strains after: 24 h ([1]; isosorbide dose 9%): 7 × 10^2 colony forming units/ml
- Number of colony-forming strains after: 7 days ([1]; isosorbide dose 9%): 0 colony forming units/ml
- Number of colony-forming strains after: 14 days ([1]; isosorbide dose 9%): 0 colony forming units/ml
- Number of colony-forming strains after: 21 days ([1]; isosorbide dose 9%): 0 colony forming units/ml
- Number of colony-forming strains after: 28 days ([1]; isosorbide dose 9%): 0 colony forming units/ml
- effect on the strain in words ([1]; summary of Table 4): weak bactericide
- minimum inhibitory concentration (Staphylococcus aureus): 10%
